Test system: cabABC promoter (PcabABC-luc) in S. mitis G22
Assay: cabABC expression, PcabABC-luc reporter in S. mitis G22
Format: cell-based, Streptococcus mitis
Settings: after CSPG22 treatment in acidic medium; Fig. S3B

ESRLSRLLRDFIFQIKQ [CSPG22]
time of peak cabABC expression post-induction: approximately 70 min

Reference: paper PMC13059744 (mBio, 2026)
